# In a melting point compilation (Tetko et al.; mined from patent text by program, amines drawn as free bases though some values may be those of a salt):
row,melting point [°C],Compound
1,192 to 194,CNc1nc(-c2cccc(NC(=O)c3ccccc3OCc3ccccc3)c2)c2cc(OC)c(OC)cc2n1
2,180 to 182,CCOC(=O)C(=O)Cc1cc(=O)n(Cc2ccc(Cl)cc2)c2ccccc12
3,94 to 97,CC(O)(C=Cc1ccc(S(=O)(=O)c2ccccc2)cc1)C(F)(F)F (configuration not stated)
4,182 to 184,COC(=O)[C@]12OC(=O)C[C@H]1S[C@@H]1[C@H](NC(=O)COc3ccccc3)C(=O)N12
5,229 to 231,Cc1cc(C)c(-c2c(O)c(Cl)c(-c3ccc(Cl)cc3)oc2=O)c(C)c1
6,158 to 160,Cn1c(=O)c2c(nc(CCc3cccc(N)c3)n2C)n(C)c1=O
7,224 to 226,CCCCc1nc2ccccc2n1Cc1ccc(C(=O)O)cc1F
8,104 to 106,CC(C)c1cccc(C(C)C)c1NC(=O)CNCC1(Nc2ccccc2)CCCCC1
9,90.5 to 91,Cc1cc(C)c2c(c1O)C(=O)C(c1ccccc1)C2 (configuration not stated)
10,73 to 75,CC(C)(C)c1cc(NC(=O)Nc2ccc(Oc3cccc(NC(=O)OCc4ccccc4)c3)cc2)no1
11,107 to 108,CCOC(=O)c1nc(-c2ccccc2)n(-c2ccc(C(F)(F)F)cc2Cl)n1
12,151 to 152,COc1ccc(C2=NN(c3ccccc3)C(=O)[C@H]3CC=CC[C@@H]23)cc1Cl (relative stereo)
13,181 to 186,O=C(NNc1ccccc1)c1ccc(F)cc1
14,136 to 137,CCC1Cc2c(C)c(OCC(=O)O)c(C)c(C)c2C1=O (configuration not stated)
15,101 to 103,CC(C)(C)NC(=O)c1nn(-c2ccccc2)c2c1C1CCC2C1 (configuration not stated)
16,242 to 244,CCOC(=O)c1cc2c3ccccc3[nH]c(=O)n2n1
17,116 to 118,CCOC(=O)CC(=O)NNc1ncc(-c2ccccc2)nc1CC(C)C
18,194 to 197,COCc1cc(Cl)n2nc(SC)c(S(=O)(=O)c3ccccc3)c2n1
19,165,CC1(C)Oc2ccc(C#N)cc2[C@@H](NC(=O)c2ccccn2)[C@@H]1O (relative stereo)

row,melting point [°C],Compound
1,131 to 133,CCc1c(CO)c(CO)c2n1-c1ccccc1C2
2,40,Cc1csc2c1CCN(C)CC2c1ccccc1 (configuration not stated)
3,184 to 187,CC1(C)Oc2ccc(C#N)cc2C(Nn2ccccc2=O)C1(C)O (configuration not stated)
4,58 to 62,CC(=O)Oc1ccc(C(=O)Nc2cccc(OCc3cccnc3)c2)cc1C(C)(C)C
5,135 to 138,CSc1ccc2sc3cc(F)ccc3c(=O)c2c1
6,86.5 to 87.5,c1csc(CNc2nccc3ccccc23)c1
7,188 to 190,Cc1[nH]cnc1CN1CCc2c(c3cccc(F)c3n2C)C1
8,135 to 136,Cc1ccc(C2c3c(C)c4c(c(C)c3OC2(C)C)CCN4)cc1 (configuration not stated)
9,149 to 151,COc1ccc([C@H]2SC=C(c3ccccc3)N(CCN(C)C)C(=O)[C@H]2OC(C)=O)cc1
10,210 to 211,CC(=O)NC1CCc2c([nH]c3ccc(Br)cc23)C1 (configuration not stated)
11,110 to 111,Cc1c(C(=O)O)oc2cc(OCCNC[C@H](O)COc3ccccc3)ccc12
12,> 230,CSc1nn2c(N)c3c(nc2c1S(=O)(=O)c1ccccc1)CCC3
13,74 to 76,O=c1oc2ccccc2c(=O)n1OS(=O)(=O)C(F)(F)F
14,170 to 171,CC(C)(CNC(=O)c1cc2cccc(NS(=O)(=O)c3cccs3)c2[nH]1)SCc1ccccc1
15,223 to 226,O=S1(=O)N=C(NCc2ccccc2)Nc2cc(Cl)sc21
16,277 to 278,CCc1[nH]n(C2CCCC2)c2nc(-c3cc(C)nc(Cl)c3)nc(=O)c1-2
17,86 to 87,CN(C)C(=O)c1ccc2ccccc2c1-c1ccccc1
18,128,CC(C)c1cccc(S(=O)(=O)n2c(CCCC(=O)O)cc3cc(Cl)ccc32)c1
19,134 to 135,Cc1c(C(=O)OCc2ccccc2)sc(NC(=O)c2ccccc2)c1C(=O)OC(C)(C)C

# Second part, the compound before the results:
row,Compound,melting point [°C]
1,c1ccc(CNc2nnc(-c3ccc(CN4CCCCCC4)s3)s2)cc1,165 to 166
2,O=C(O)C1C=CCn2c(=O)n(CCCS)c(=O)n21 (configuration not stated),119 to 121
3,CC(=O)SCCC(=O)N1c2ccccc2C(C)(C)C1C(N)=O (configuration not stated),156 to 158
4,CC(C)(C)OC(=O)Nc1cc(N2CCC(OCCOC3CCCCO3)CC2)c(-c2ccc(F)cc2)cc1NC(=O)CC(=O)c1cccc(-n2ccnc2)c1 (racemic),57 to 58
5,Cc1cc(C)nc(-n2nc(C)nc2N)n1,237
6,COC(=O)Cc1ccc(C(=O)c2ccc(OC)cc2)n1C,104 to 105
7,O=C1NC(=O)C(Cc2ccc(NC(=O)c3cc(=O)c4cc(Br)ccc4o3)cc2)S1 (configuration not stated),281 to 285
8,O=c1ccc2c(-c3cccs3)nccc2[nH]1,238 to 240
9,COc1ccc(S(=O)(=O)N(C)C)c(N)c1,59 to 64
10,CNc1nc(C)c(-c2ccnc(Nc3ccc(N4CCNCC4)cc3)n2)s1,253 to 255
11,CN(C)Cc1nnc2n1-c1ccc(Cl)cc1C(c1ccc(Cl)cc1)=[N+]([O-])C2,260
12,N#CCCOc1ccc2c(c1)CCO2,< 50
13,Cc1c(S(C)(=O)=O)cc([N+](=O)[O-])c(Cl)c1[N+](=O)[O-],174 to 175
14,O=C1CCC(N2Cc3c(OCc4ccc(CN5CCN(S(=O)(=O)c6ccccc6)CC5)cc4)cccc3C2=O)C(=O)N1 (configuration not stated),220 to 222
15,CC(Oc1ccc(Cl)c(Cl)c1)c1nnc(N)s1 (configuration not stated),136 to 138
16,CC(=O)OCc1nc(-c2ccc3c(c2)OCO3)c2cc3c(cc2n1)OCO3,144 to 147
17,Cc1cc2c(s1)C(C(=O)O)CC2 (configuration not stated),105 to 107
18,O=S(=O)(Oc1ccc(S(=O)(=O)c2ccc(OS(=O)(=O)c3ccccc3)cc2)cc1)c1ccccc1,133 to 134
19,COc1cccc(OC)c1-c1ccc(C[C@H](NC(=O)c2c(Cl)ccc(-c3c(C)noc3C)c2Cl)C(=O)O)cc1,145
20,N[C@@H](Cc1ccccc1)C(=O)NC(=O)OCc1ccccc1,158 to 160
21,NC(=NCC(F)(F)F)Nc1ccnc(COCCO)n1,144 to 146
22,CC(C)c1n[nH]c2c(Nc3cccc(Cl)c3)nc(Cl)nc12,257 to 259

row,Compound,melting point [°C]
1,COc1cc(Nc2c(C#N)cnc3ccc(/C=C/CCN4CCOCC4)cc23)c(Cl)cc1Cl,95 to 96
2,CCCCNC(=O)c1ccc(Cl)c(-n2nc(CCCC)n(Cc3ccc(Br)cc3F)c2=O)c1,114 to 116
3,COC(=O)c1nccc(N)n1,140 to 142
4,C/C(=C(\C#N)C(N)=S)N1CCCN(c2cccc(Cl)c2)CC1,133 to 134
5,CCc1nn(CCOP(=O)(O)O)c(CC)c1Oc1cc(C#N)cc(C#N)c1,198 to 199
6,N#Cc1ccc(OCC(NNC(=O)Nc2ccc(OC(F)(F)F)cc2)c2ccccc2)cc1 (configuration not stated),176
7,Cc1c(C(C)(C)C)cc(C(C)C)c(O)c1CO,143 to 146
8,CN(C)c1ccc2cc(C(/C=C\NCCO)=C(C#N)C#N)ccc2c1,168 to 170
9,NS(=O)(=O)c1ccc(-c2cccc(-c3nc(-c4ccc(Cl)cc4)cc(C(F)(F)F)n3)c2)s1,226
10,COC(=O)c1cc2c(cc1N)OCO2,107 to 108
11,CCNc1nc(SC)ncc1C(=O)O,188
12,COc1cc2[nH]c3nc[nH]c(=O)c3c2cc1OC,296 to 298
13,N=C1SCCN1c1ccccc1[N+](=O)[O-],127
14,Nc1ccc2c(c1)SC1=NCCCN12,186
15,CC(=Cn1ccnc1)C(=O)c1ccc(Cl)cc1Cl,129 to 130
16,CN(C1CCN(CCCC(F)(F)F)CC1)S(=O)(=O)c1ccc(Nc2nccc(Nc3ccc(F)cc3)n2)cc1,166 to 167
17,CCCCC(=O)Cc1ccc(C(=O)Nc2ccc3cc(CN4CCCC4)cnc3c2C)cc1,156
18,O=C1NC(C(=O)NCCO[N+](=O)[O-])C(c2cccnc2)S1 (configuration not stated),139 to 140
19,CCCCCCCCCCCCCC=CCC(O)C(=O)O (configuration not stated),78 to 79.5
20,C(=Cc1cccc2ccccc12)c1ccc(-c2cc3ccccc3o2)cc1,154 to 155
21,CN1C(=O)[C@H](NC(=O)COc2ccccc2)N=C(c2ccccc2)c2ccccc21,126 to 128
22,CNC(=O)c1cc2c(Oc3ccc(-c4noc(C(F)(F)F)n4)cc3)cncc2s1,174 to 176

row,Compound,melting point [°C]
1,CN1CCN(c2ccnc3c(NC(=O)c4c(Cl)cccc4Cl)ccc(Cl)c23)C1=O,259 to 263
2,COc1ccc(F)cc1-c1cccc(-n2cnc(-c3nc(C)no3)c2)c1,153 to 158
3,COc1cc(OC)nc(NC(=O)NS(=O)(=O)Cc2ccccc2C(=O)N(C)C)n1,141 to 143
4,CONS(=O)(=O)c1ccc(Cl)cc1,81 to 82.5
5,CC1(C)CCC(C)(C)c2cc(C=O)c(Br)cc21,114
6,Cn1nnc(-c2ccc(CNc3n[nH]c4ncnc(Nc5cccc(Cl)c5)c34)cc2)n1,232 to 235
7,CC(C)(C)OC(=O)N1CC[C@H](O)[C@H]1C(=O)O,156 to 157
8,CCCOc1ccc(S(=O)(=O)N2CCN(CC)CC2)cc1C(=O)Nc1c(C(N)=O)nn(Cc2ccccn2)c1CC,191 to 192
9,Nc1ccc2ccc(-c3cccc(Br)c3)nc2n1,165 to 166
10,Cc1nnc(-c2ccc3occ(-c4ccc(F)cc4)c3c2)o1,130 to 131
11,CCCCCOC(=O)NS(=O)(=O)CCc1cc(OCCCC)nn1Cc1ccc(Cl)cc1Cl,91 to 93
12,CCc1cc(CC)c2ccc(N)nc2n1,187 to 189
13,Cc1cc(-c2ccc(C(F)(F)F)cc2)cc(-c2nc(-c3cccc(S(N)(=O)=O)c3)cs2)n1,> 250
14,CC(=O)Nc1ccc(S(=O)(=O)C/C=C2/CN3C(=O)C[C@H]3O2)cc1,110 to 111
15,CCC1(O)NC(=O)C2(c3ccc(Cl)cc3)CC12 (configuration not stated),117 to 124
16,CCNc1cc(C)nc(Oc2c(C)cc(C)cc2C)c1C,115 to 116
17,CCc1c(N)c(C(N)=O)nn1CCN1CCOCC1,152 to 153
18,CC1=Nc2c(C)nn(CC(F)(F)F)c2C2=NC(C)CN12 (configuration not stated),91 to 95
19,Cc1ccc(-c2nnnn2C)c(S(N)(=O)=O)c1,161 to 171
20,CC(C)(C)OC(=O)Nc1ccsc1NC(=O)OC(C)(C)C,165 to 167
